Reference: article PMC6632015, “Niosomal Nanocarriers for Enhanced Skin Delivery of Quercetin with Functions of Anti-Tyrosinase and Antioxidant” (Molecules, 2019)
≈ marks a conversion by molar mass, not a printed value.

Key:
[1] = DPPH radical scavenging activity; conditions: DPPH 30 μg/mL, absorbance at 515 nm
Protocol: The antioxidant activity of flavonoids was measured by the bleaching rate of DPPH, reported by Blois. In its radical form, DPPH absorbs at the wavelength of 515 nm, but its absorption decreases upon reduction by an antioxidant or a radical compound. The DPPH radical scavenging activity of flavonoids was evaluated according to the method described by Rui Yang, with some modifications. Briefly, 5 mL of DPPH (30 μg/mL) was mixed with 0.1 mL of absolute ethyl alcohol and 0.1 mL of samples with different concentrations. Then, the absorbance of the mixtures was determined at 515 nm. The DPPH radical scavenging activity was calculated as follows: (2) DPPH radical scavenging activity = A0−Ai/A0×100% where A0 and Ai denote the absorbance at 515 nm of the control (DPPH mixed with absolute ethyl alcohol) and the test samples (DPPH mixed with flavonoids).

tyrosinase = experiment: In vitro tyrosinase inhibition (dopachrome formation at 493 nm, L-tyrosine substrate); format: biochemical; conditions: for IC50 anti-tyrosinase activity: tyrosinase 120 unites/mL, phosphate buffer pH 6.8, 30 °C, L-tyrosine
Protocol: The tyrosinase inhibition assay was performed based on a previous study with slight modification. The activity of tyrosinase inhibition was determined using a spectrophotometer by monitoring dopachrome formation at 493 nm. […] After incubation at 30 °C for 10 min, 0.5 mL of L-tyrosine was added to the systems. The reaction systems were incubated at 30 °C for 20 min and absorbance was determined at 493 nm. […] The degree of inhibition of the sample was expressed as 50% inhibition concentration (IC50).
The inhibitory effects of the test samples were expressed as the percentage of tyrosinase inhibition as follows:(1) Tyrosinase inhibition=(A−B)−(C−D)/(A−B)×100% where A and B denote the absorbance at 493 nm of the mixture without the test sample (L-tyrosine mixed with the enzyme in the buffer; the control) and without the test sample or the enzyme (L-tyrosine in the buffer; the blank), respectively; C and D denote those with the test sample and enzyme (L-tyrosine mixed with the enzyme and test sample in the buffer; the reaction mixture) and without the enzyme (L-tyrosine mixed with the test sample in the buffer; the blank version of C).

[2] = Ex vivo drug permeation through rat abdominal skin (transdermal diffusion device); format: in vitro ADME; conditions: 0.6% Tween80 receptor medium, up to 24 h
Protocol: Rats were sacrificed by cervical dislocation, hair on the abdomen was shaved, and then abdominal skin was separated and placed into physiological saline. Afterward, subcutaneous tissue (muscle, fat, and vascellum) was removed using surgical scissors and hemostatic forceps and then stored at 4 °C with physiological saline for further investigation. […] Then, 0.6% Tween80 solution was selected as the penetration release medium. Skin tissues were placed between the diffusion cell and receptor cell, and 0.4 mL of quercetin preparations (equivalent to 120 μg of quercetin) was applied on the skin. Penetration medium (0.5 mL) was withdrawn from the receptor cell at 1, 2, 4, 6, 8, 10, 12, and 24 h with the replacement of fresh penetration medium (0.5 mL). Penetration mediums withdrawn at different timepoints were diluted to 7 mL with methanol and determined by HPLC after centrifugation and filtration.

[3] = Solubility of quercetin in different release medium; format: physicochemical
Protocol: An aqueous solutions of 15 mL of Tween80 and SDS at different concentrations and excess quercetin were placed into each of the vials. Vials were shaken in a 32 °C water bath for 24 h. After 24 h, 5 mL suspension was centrifuged at 3000 rmp for 15 min and 0.2 mL of the supernatant was diluted to 2 mL and determined using HPLC.

[4] = Water solubility of quercetin and solubility in niosomes; format: physicochemical
Protocol: The water solubility of quercetin was measured with 15 mL of purified water, phosphate buffers with different pH values (pH 5.0, 6.0, 6.8, 7.4, 8.0), and excess quercetin, and placed into vials. The vials were shaken for 24 h in a 37 °C water bath and the supernatant was determined by HPLC after centrifugation.

O=C(O)[C@H]1O[C@@H](Oc2cc3oc(-c4ccc(O)cc4)cc(=O)c3c(O)c2O)[C@H](O)[C@@H](O)[C@@H]1O [Breviscapine]
EC50 DPPH radical scavenging activity [1]: 368.08 ± 1.04 mg/L (≈ 796 µM)
anti-tyrosinase activity (in words) (tyrosinase): no promising anti-tyrosinase activity
IC50 anti-tyrosinase activity (tyrosinase): >1000 mg/L

Cc1cc(C(C)(C)C)c(O)c(C(C)(C)C)c1 [Butylated hydroxytoluene (BHT), Butylated hydroxytoluene, reference compound]
EC50 DPPH radical scavenging activity [1]: 358.15 ± 1.43 mg/L (≈ 1630 µM)

O=c1c(O)c(-c2ccc(O)c(O)c2)oc2cc(O)ccc12 [Festin]
EC50 DPPH radical scavenging activity [1]: 83.19 ± 0.33 mg/L (≈ 291 µM)
IC50 anti-tyrosinase activity (tyrosinase): 23.10 ± 0.32 mg/L (≈ 80.7 µM)

O=c1c(O)c(-c2ccc(O)cc2O)oc2cc(O)cc(O)c12 [Morin]
EC50 DPPH radical scavenging activity [1]: 123.06 ± 0.48 mg/L (≈ 407 µM)
IC50 anti-tyrosinase activity (tyrosinase): 4.26 ± 0.47 mg/L (≈ 14.1 µM)

O=c1c(O)c(-c2cc(O)c(O)c(O)c2)oc2cc(O)cc(O)c12 [Myricetin]
EC50 DPPH radical scavenging activity [1]: 118.63 ± 0.57 mg/L (≈ 373 µM)
anti-tyrosinase activity (in words) (tyrosinase): no the anti-tyrosinase activity

O=c1c(O)c(-c2ccc(O)c(O)c2)oc2cc(O)cc(O)c12 [Quercetin]
EC50 DPPH radical scavenging activity [1]: 80.75 ± 0.26 mg/L (≈ 267 µM)
quercetin in the penetration release medium (ex vivo penetration) [2]: could not be determined
Solubility in Tween80 Aqueous Solution ([3]; 0.1% Tween80, 32 °C, 24 h): 0.01219 ± 0.00105 mg/mL (≈ 40.3 µM)
solubility at 24 h ([3]; 0.2% SDS aqueous solution, 0.2% SDS, 32 °C, 24 h, read-out: Solubility in SDS Aqueous Solution): 0.00458 ± 4e-05 mg/mL (≈ 15.2 µM)
solubility at 24 h ([3]; 0.2% Tween80 aqueous solution, 32 °C, aqueous with cosolvent or surfactant or cyclodextrin, thermodynamic from solid, 0.2% Tween80, 32 °C, 24 h, read-out: Solubility in Tween80 Aqueous Solution): 0.0247 ± 0.00215 mg/mL (≈ 81.8 µM)
solubility at 24 h ([3]; 0.3% Tween80 aqueous solution, 0.3% Tween80, 32 °C, 24 h, read-out: Solubility in Tween80 Aqueous Solution): 0.0314 ± 0.00073 mg/mL (≈ 104 µM)
Solubility in SDS Aqueous Solution ([3]; 0.4% SDS, 32 °C, 24 h): 0.00422 ± 0.00043 mg/mL (≈ 14 µM)
solubility at 24 h ([3]; 0.4% Tween80 aqueous solution, 0.4% Tween80, 32 °C, 24 h, read-out: Solubility in Tween80 Aqueous Solution): 0.04134 ± 0.00019 mg/mL (≈ 137 µM)
solubility at 24 h ([3]; 0.6% SDS aqueous solution, 32 °C, aqueous with cosolvent or surfactant or cyclodextrin, thermodynamic from solid, 0.6% SDS, 32 °C, 24 h, read-out: Solubility in SDS Aqueous Solution): 0.00648 ± 0.00044 mg/mL (≈ 21.4 µM)
solubility at 24 h ([3]; 0.6% Tween80 aqueous solution, 0.6% Tween80, 32 °C, 24 h, read-out: Solubility in Tween80 Aqueous Solution): 0.0564 ± 0.00142 mg/mL (≈ 186 µM)
Solubility in pH-0.8%Tween80 Aqueous Solution ([3]; 0.8% Tween80, pH 5.0): 79.49 ± 0.41 μg/mL
solubility at 24 h ([3]; 0.8% Tween80 aqueous solution, 32 °C, aqueous with cosolvent or surfactant or cyclodextrin, thermodynamic from solid, 0.8% Tween80, 32 °C, 24 h, read-out: Solubility in Tween80 Aqueous Solution): 0.0761 ± 0.00311 mg/mL (≈ 252 µM)
solubility at 24 h ([3]; 0.8% Tween80 aqueous solution, 32 °C, pH 5, aqueous with cosolvent or surfactant or cyclodextrin, thermodynamic from solid, 0.8% Tween80, pH 5.0, read-out: Solubility in pH-0.8%Tween80 Aqueous Solution): 0.0761 ± 0.00311 mg/mL (≈ 252 µM)
solubility at 24 h ([3]; 0.8% Tween80 aqueous solution, 32 °C, pH 6.8, aqueous with cosolvent or surfactant or cyclodextrin, thermodynamic from solid, 0.8% Tween80, pH 6.8, read-out: Solubility in pH-0.8%Tween80 Aqueous Solution): 0.0524 ± 0.00071 mg/mL (≈ 173 µM)
solubility at 24 h ([3]; 0.8% Tween80 aqueous solution, pH 7.4, 0.8% Tween80, pH 7.4, read-out: Solubility in pH-0.8%Tween80 Aqueous Solution): 0.055 ± 0.0066 mg/mL (≈ 182 µM)
IC50 anti-tyrosinase activity (tyrosinase): 1.59 ± 0.38 mg/L (≈ 5.26 µM)
solubility in niosomes, fold higher than in water [4]: 1247 fold
solubility at 24 h ([4]; 37 °C, water, thermodynamic from solid): 0.00021 ± 0.00014 mg/mL (≈ 0.695 µM)
Solubility ([4]; medium: niosomes, from 300 μg/mL loaded and entrapment 87.3 ± 1.6%): 0.2619 ± 0.0048 mg/mL (≈ 867 µM)

C[C@@H]1O[C@@H](OC[C@H]2O[C@@H](Oc3c(-c4ccc(O)c(O)c4)oc4cc(O)cc(O)c4c3=O)[C@H](O)[C@@H](O)[C@@H]2O)[C@H](O)[C@H](O)[C@H]1O [Rutin]
EC50 DPPH radical scavenging activity [1]: 188.28 ± 0.68 mg/L (≈ 308 µM)
anti-tyrosinase activity (in words) (tyrosinase): no promising anti-tyrosinase activity
IC50 anti-tyrosinase activity (tyrosinase): >1000 mg/L
